Where two headings read alike, the source gives them in different places.
Assays:
[1] = tested on: HCV replicon (NS3/4A A156T); conditions: mutant HCV replicon with luciferase readout; cited from earlier work
[2] = tested on: HCV replicon (NS3/4A R155K); conditions: cited from earlier work
[3] = tested on: HCV replicon (NS3/4A V170A); conditions: cited from earlier work
[4] = tested on: HCV replicon (NS3/4A V36M); conditions: cited from earlier work
[5] = tested on: HCV replicon (NS3/4A D168A); conditions: cited from earlier work
HCV replicon (WT NS3/4A) = conditions: HCV replicon with luciferase readout; cited from earlier work
HCV NS3/4A (wild-type) = molecular target: T1, HCV NS3/4A (wild-type) (Hepatitis C virus genotype 1b, UniProt O92972); assay: NS3/4A activity assay with FRET peptide substrate, wild-type enzyme; assay type: biochemical, HCV genotype 1b, strain HC-J4
T1 construct: The NS3/4A construct represented the individual NS3 proteinase domain N-terminally fused with an NS4A co-factor; 6xHis; purchased AnaSpec (Fremont, CA)
Source text: Reagents were purchased from Sigma unless indicated otherwise. The FRET substrate Ac-DE-D(Edans)-EE-Abu-ψ-[COO]-AS-K(Dabsyl)-NH2, purified recombinant wild-type NS3/4A from HCV genotype 1b, strain HC-J4, and the mutants with the V36M, R155K, A156T, D168A and V170A resistance mutations were from AnaSpec (Fremont, CA). The NS3/4A construct represented the individual NS3 proteinase domain N-terminally fused with an NS4A co-factor and tagged with a 6xHis tag. NS3/4A was in active form and the pre-activation by pep-4A or pep4AK was not necessary. Pyroglutamic acid-Arg-Thr-Lys-Arg-7-amino-4-methylcoumarin was from Peptides International (Louisville, KY). West Nile virus NS2B-NS3 proteinase (strain NY99) was expressed, purified and refolded to restore its functional activity as described earlier. The pET15b-Den2-CF40-Gly-NS3pro 185 plasmid encoding the Dengue virus type 2 NS2B-NS3 protease was a kind gift of Dr. Subhash Vasudevan (Program in Emerging Infectious Diseases, DUKE-NUS Graduate Medical School, Singapore). DV NS2B-NS3 proteinase was expressed purified and refolded to restore its functional activity as described previously, [70]. The expression of the soluble C-terminally truncated human furin construct in Sf9 insect cells (an ovarian cell line from fall armyworm Spodoptera frugiperda; Invitrogen, Carlsbad, CA) infected with the recombinant baculovirus and purification of soluble furin from the medium were described earlier. Original human hepatocarcinoma Huh7 cells were obtained from ATCC (Manassas, VA).
The NS3/4A activity assay was performed at 37°C in triplicate in wells of a 96-well plate in 0.2 ml 50 mM HEPES, pH 7.5, containing 100 mM NaCl, 10 mM DTT, 20% glycerol, the Ac-DE-D(Edans)-EE-Abu-ψ-[COO]-AS-K(Dabsyl)-NH2 substrate (10 µM) and the NS3/4A enzyme (10 nM). Reaction velocity was monitored continuously at λex = 355 nm and λem = 500 nm for 10 min using a Spectramax Gemini EM fluorescence spectrophotometer (Molecular Devices, Sunnyvale, CA) and the initial rate of reaction v was recorded for each reaction. There was no significant additional absorption by compounds 1–8 we identified, which might interfere with NS3/4A assay. Compound stock solutions (10 mM) were made in 100% DMSO. Stocks were then diluted using the assay buffer. As a result, the final DMSO concentration was always below 1% in the assay reactions.
To measure the inhibitory potency of the compounds, their increasing concentrations were pre-incubated with the individual proteinases in the corresponding buffer for 30 min at ambient temperature. At least, 7–9 different concentrations were used for each inhibitor. The residual activity of the enzymes was then measured as above. The IC50 values of the inhibitory compounds were calculated by determining the concentrations of the compounds needed to inhibit 50% of the enzyme activity against the peptide substrate. GraphPad Prism was used as fitting software.

[6] = fold change vs WT, mutant HCV replicon
[7] = mutant HCV replicon with luciferase readout
[8] = wild-type NS3/4A 10 nM, Ac-DE-D(Edans)-EE-Abu-ψ-[COO]-AS-K(Dabsyl)-NH2 10 µM, 30 min pre-incubation, read-out: NS3/4A IC50
[9] = Table S1, wild-type NS3/4A, FRET peptide substrate, read-out: NS3/4A IC50 range class 10 -100
[10] = Table S1 100-1000, wild-type NS3/4A, FRET peptide substrate, read-out: NS3/4A IC50 range class 100-1000

| Compound | IC50 (HCV NS3/4A (wild-type); [9]) | IC50 (HCV NS3/4A (wild-type); [10]) | other results |
| --- | --- | --- | --- |
| CC(C)(C)NC(=O)N[C@H](C(=O)N1C[C@H]2[C@@H]([C@H]1C(=O)NC(CC1CCC1)C(=O)C(N)=O)C2(C)C)C(C)(C)C (stereo partly shown) [Boceprevir, boceprevir] |  |  | IC50 [1]: 7.23 µM; R155K FC (replicon) [2, 6]: 4.7; IC50 [2, 7]: 0.743 µM; V170A FC (replicon) [3, 6]: 5.8; IC50 [3, 7]: 1.55 µM; V36M FC (replicon) [4, 6]: 1.8; IC50 [4, 7]: 0.217 µM; D168A FC (replicon) [5, 6]: 0.7; IC50 [5, 7]: 0.1 µM; IC50 (HCV replicon (WT NS3/4A)): 0.148 µM |
| FC(F)(F)c1nc2nc(Cl)c(Cl)nc2s1 [Compound 9] |  |  | IC50 (HCV NS3/4A (wild-type); [8]): 4.5 µM |
| S=c1[nH]nc(CCCCc2n[nH]c(=S)n2/N=C/c2ccc(Cl)cc2Cl)n1/N=C/c1ccc(Cl)cc1Cl [Compound 10] |  |  | IC50 (HCV NS3/4A (wild-type); [8]): 5.25 µM |
| O=C(c1ccco1)c1c(C(F)(F)F)n([O-])c2cc(Cl)c(Cl)cc2[n+]1=O [Compound 11] |  |  | IC50 (HCV NS3/4A (wild-type); [8]): 6.5 µM |
| Cn1ncc2c(Nc3cc(Cl)ccc3Cl)ncnc21 [Compound 12] | 10 to 100 µM |  |  |
| Oc1c(Br)cc(CN(Cc2cc(Br)c(O)c(Br)c2)C2CCCCC2)cc1Br [Compound 13] | 10 to 100 µM |  |  |
| Oc1ccc(C=NCCN=Cc2ccc(O)cc2O)c(O)c1.[Ni] [Compound 14] | 10 to 100 µM |  |  |
| O=C1C=C(Nc2ccc(Cl)cc2Cl)C(=O)C=C1Nc1ccc(Cl)cc1Cl [Compound 15] | 10 to 100 µM |  |  |
| O=C1c2cc(Cl)ccc2-c2ccc(N=Cc3ccc(Cl)c(Cl)c3)cc21 [Compound 16] | 10 to 100 µM |  |  |
| O=C(CCCC(=O)N/N=C/c1ccc(Cl)cc1Cl)N/N=C/c1ccc(Cl)cc1Cl [Compound 17] | 10 to 100 µM |  |  |
| FC(F)(F)c1cccc(-c2nc3nc(Cl)c(Cl)nc3[nH]2)c1 [Compound 18] | 10 to 100 µM |  |  |
| CC(C)N(C(=O)CSc1c(Cl)c(Cl)c(Cl)c(Cl)c1Cl)C(C)C [Compound 19] | 10 to 100 µM |  |  |
| O=C(N/N=C\c1cc(Br)cc(Br)c1O)N/N=C/c1cc(Br)cc(Br)c1O [Compound 20] | 10 to 100 µM |  |  |
| O=C(Nc1ccc(Cl)c(Cl)c1)c1ccc(C(=O)Nc2ccc(Cl)c(Cl)c2)cc1 [Compound 21] | 10 to 100 µM |  |  |
| O=C(O)c1c(Br)c(Br)c(Br)c(Br)c1C(=O)Nc1cc([N+](=O)[O-])ccc1O [Compound 22] | 10 to 100 µM |  |  |
| O=C(CNC(=O)Nc1ccc(Cl)c(Cl)c1)NNC(=O)Nc1ccc(F)c(Cl)c1 [Compound 23] | 10 to 100 µM |  |  |
| O=C(Nc1ccc(Cl)c(Cl)c1)C1C(=O)C(=O)N(c2ccc(Cl)c(Cl)c2)C1=O (stereo not shown) [Compound 24] | 10 to 100 µM |  |  |
| O=C1CS(=O)(=O)CN1c1ccc(Cl)c(Cl)c1 [Compound 25] | 10 to 100 µM |  |  |
| Cc1nn(C(=S)S)c(C)c1N=Nc1cccc(Cl)c1Cl [Compound 26] | 10 to 100 µM |  |  |
| Cc1c(N=Nc2cccc(Cl)c2Cl)c(-c2ccccc2)nn1C(=S)S [Compound 27] | 10 to 100 µM |  |  |
| Cc1nn(C(N)=S)c(C)c1N=Nc1cccc(Cl)c1Cl [Compound 28] | 10 to 100 µM |  |  |
| CSC(=S)n1nc(C)c(N=Nc2cccc(Cl)c2Cl)c1C [Compound 29] | 10 to 100 µM |  |  |
| Brc1ccc2c(ccc3c2nnc2ncnn23)c1 [Compound 30] | 10 to 100 µM |  |  |
| OCC(O)C(O)C(O)c1nn(-c2ccccc2)c2nc3cc(Cl)c(Cl)cc3nc12 (stereo not shown) [Compound 31] | 10 to 100 µM |  |  |
| C(=C\c1ccccc1)/Cn1nc(-c2ccccc2)nc1-c1cnccn1 [Compound 32] | 10 to 100 µM |  |  |
| Cc1cc(S(=O)(=O)Nc2nc3cc(-c4ccc(Cl)cc4)sc3c(=O)n2N)c(S)cc1Cl [Compound 33] | 10 to 100 µM |  |  |

| Compound | IC50 (HCV NS3/4A (wild-type); [9]) | IC50 (HCV NS3/4A (wild-type); [10]) | other results |
| --- | --- | --- | --- |
| Sc1ccccc1Nc1nc(SCc2ccccc2)nc2n[nH]c(Cc3nc4ccccc4s3)c12 [Compound 34] | 10 to 100 µM |  |  |
| Clc1ccc(OCc2nn3c(CCCCc4nnc5sc(COc6ccc(Cl)cc6Cl)nn45)nnc3s2)c(Cl)c1 [Compound 35] | 10 to 100 µM |  |  |
| O=S(=O)(Nc1cc(Cl)c(Cl)cc1N=Cc1ccc(N(CCCl)CCCl)cc1F)c1ccccc1 [Compound 36] | 10 to 100 µM |  |  |
| O=[N+]([O-])c1ccc(O)c(C=Nc2cc(Cl)c(Cl)cc2NS(=O)(=O)c2ccccc2)c1 [Compound 37] | 10 to 100 µM |  |  |
| O=S(=O)(Nc1c(Cl)c(Cl)c(NS(=O)(=O)c2ccccc2)c(Cl)c1Cl)c1ccccc1 [Compound 38] | 10 to 100 µM |  |  |
| O=C(Nc1ccc(Cl)c(Cl)c1)C(=O)C(C(=O)c1ccccc1F)C1OC(=O)c2ccccc21 (stereo not shown) [Compound 39] | 10 to 100 µM |  |  |
| Clc1ccc(Nc2nc(SCc3ccccc3)nc3n[nH]c(Cc4nn[nH]n4)c23)cc1 [Compound 40] | 10 to 100 µM |  |  |
| Cn1ncc2c(Nc3ccc(O)cc3)nc(Cl)nc21 [Compound 42] |  | 100 to 1000 µM |  |
| CC(C)(CCC#N)c1nc2sc(C(C)(C)CCC#N)nc2s1 [Compound 43] |  | 100 to 1000 µM |  |
| CN(C)CCCNc1nc(-c2cccc(C(Cl)(Cl)Cl)c2)nc(C(Cl)(Cl)Cl)n1 [Compound 44] |  | 100 to 1000 µM |  |
| FC(F)(F)C(F)(F)c1nc2nc(Cl)c(Cl)nc2[nH]1 [Compound 45] |  | 100 to 1000 µM |  |
| Clc1nc2nc3n(c2nc1Cl)CCC3 [Compound 46] |  | 100 to 1000 µM |  |
| CSc1nc2nc(Cl)c(Cl)nc2[nH]1 [Compound 47] |  | 100 to 1000 µM |  |
| FC(F)(F)C1=N/C(=C2\N=C(C(F)(F)F)N=C2Cl)C(Cl)=N1 [Compound 48] |  | 100 to 1000 µM |  |
| CC(CNc1nc(Nc2ccc(Cl)c(Cl)c2)nc(C(Cl)(Cl)Cl)n1)N(C)C (stereo not shown) [Compound 49] |  | 100 to 1000 µM |  |
| NC(=S)/N=C(\c1nc2ccc(Cl)cc2[nH]c1=O)C(O)c1ccccc1Cl (stereo not shown) [Compound 50] |  | 100 to 1000 µM |  |
| OCCOCn1nc(-c2ccccc2)nc1-c1cnccn1 [Compound 51] |  | 100 to 1000 µM |  |
| O=S(=O)(Nc1c(Cl)c(Cl)c(Cl)c(Cl)c1NS(=O)(=O)c1ccccc1)c1ccccc1 [Compound 52] |  | 100 to 1000 µM |  |
| O=[N+]([O-])c1cc([N+](=O)[O-])c2ccccc2c1NS(=O)(=O)c1ccc(Cl)c(Cl)c1Cl [Compound 53] |  | 100 to 1000 µM |  |
| O=C(CCc1nnc2s/c(=C\c3ccccc3[N+](=O)[O-])c(=O)n12)Nc1cc(Cl)c(Cl)cc1Cl [Compound 54] |  | 100 to 1000 µM |  |
| O=C(Nc1ccc(Br)cc1)C(=O)C(C(=O)c1ccc(Cl)c(Cl)c1)C1OC(=O)c2ccccc21 (stereo not shown) [Compound 55] |  | 100 to 1000 µM |  |
| Cc1cccc(C(C)C)c1NC(=O)C(=O)CC(=O)c1sc(Nc2ccccc2Cl)nc1C [Compound 56] |  | 100 to 1000 µM |  |
| CC(=O)Nc1ccc(NC(=O)c2c(Cl)c(Cl)c(Cl)c(Cl)c2-c2nc3ccccc3[nH]2)cc1 [Compound 57] |  | 100 to 1000 µM |  |
| COc1ccc(OC)c(NC(=O)c2c(Cl)c(Cl)c(Cl)c(Cl)c2-c2nc3ccccc3[nH]2)c1 [Compound 58] |  | 100 to 1000 µM |  |
| S=c1[nH]n2c(COc3ccc(OCc4nnc5sc(=S)[nH]n45)c(Cl)c3)nnc2s1 [Compound 59] |  | 100 to 1000 µM |  |
| Cc1cc(S(=O)(=O)Nc2nc3ccsc3c(=O)n2Cc2ccccc2)c(S)cc1Cl [Compound 60] |  | 100 to 1000 µM |  |

From PMC3388044, “Probing of Exosites Leads to Novel Inhibitor Scaffolds of HCV NS3/4A Proteinase” (PLoS ONE, 2012)
